Data taken from patent publication US10837044B2, “Automated method for analyzing and interpreting an antimicrobial susceptibility” (FONDATION MEDITERRANEE INFECTION, priority 2014, dated 2020).

Tests used:
Assay in all cases: antibiogram by diffusion on Mueller-Hinton agar with antibiotic wafers
Format in all cases: cell-based
Klebsiella pneumoniae = details: for resistant (I/R) or sensitive (S): Table C2, sixteen wafers, square dish; for resistance (I, R) or sensitivity (S): Table C1, six wafers, disk loads of Table B
Procedure: (§1) The inoculum was prepared by making a suspension of bacteria directly from colonies put into solution in tubes of sterile water so that the solution presented accurate opacity as determined with a spectrophotometer equivalent to the opacity of a 0.5 standard in the McFarland range. This bacterial suspension concentration is standardized since a more concentrated inoculum would lead to smaller diameters for the inhibition zone, and vice versa.
(§2) The inoculum corresponds to concentrations of about 10^8 CFU/mL for Escherichia coli, Klebsiella pneumoniae, Proteus mirabilis, Klebsiella oxytoca, Enterobacter cloacea, Enterobacter aerogenes, Entercoccus faecalis, Pseudomonas aeruginosa, Staphylococcus aureus, and Staphylococcus epidermidis. These are the ten species bacteria that are encountered the most frequently in human pathologies.
(§3) 1.2) The bacterial sample was deposited on a solid culture medium in a petri dish having a diameter of 90 mm or in a square dish having a side of 120 mm, the medium being constituted by a Mueller-Hinton agar specific for (EUCAST) antibiograms. Ideally, it should be used in the 15 minutes (min) following preparation of the suspension.
(§4) Seeding was done by the method of diffusion on an agar medium by flooding in which excess bacterial suspension was added to the Mueller-Hinton agar. After homogenizing, excess liquid was discarded in order to avoid over-inoculating the dishes. It is necessary to wait beforehand for the surface of the agar to be dry in order to eliminate any trace of moisture encouraging bacterial invasion.
(§5) The disks of the antibiotic wafers were deposited within 15 min after inoculating the agar. The antibiotic impregnated disks were deposited using an automatic dispenser that placed the disks firmly on the surface of the inoculated and dried agar. The number of disks deposited per dish was limited because of inhibition zone overlap and in order to limit interference between antibiotics. It is important for the inhibition diameters to be measurable. The antibiograms were then incubated at 37° C. for 18 hours (h) to 24 h.
(§6) The antibiotic wafers were made of high quality absorbent paper with a diameter of 6 mm and they were impregnated with antibiotics at concentrations in the range 1 micrograms (μg) to 300 μg approximately, depending on the antibiotic.
(§7) In the examples below, reference disks were used as sold by the suppliers i2a (Montpellier, France), BD (Becton Dickinson, USA), Bio-Rad (Hercules, USA), Biomerieux (Marcy l′Etoile, France) containing the following antibiotics and carrying the following codes and the following doses: AMX (amoxicillin) 25 μg: AMC (amoxicillin-clavulanic acid) 20 μg-10 μg; GM for gentamicin, 15 μg; SXT (trimethoprim-sulfamethoxazole) 1.25/23.75 μg; TIC (ticarcillin) 75 μg; TCC (ticarcillin-clavulanic acid) […]; TZP (piperacillin-tazobactam) 75/10 μg; CAZ (ceftazidime) 30 μg; IMP or IPM (imipeneme) 10 μg; COL (colistin) 50 μg; FOX (cefoxitine) 30 μg; VAN (vancomycin) 30 μg; TEC (teicoplanin) 30 μg; CLI or DA (clindamycin) 2 μg; CRO (ceftriaxone) 30 μg; CIP (ciprofloxacin) 5 μg; OFX (ofloxacin) 5 μg; CTX (cefotaxime) 5 μg; AN or AK (amikacin) 30 μg; TM (tobramycin) 10 μg; FOX (cefoxitine) 30 μg; ATM (aztreonam) 30 μg; ERT (ertapenem) 10 μg; FF (fosfomycin) 200 μg; DO (doxycycline) 30 μg; K (kanamycin) 1000 μg; L (lincomycin) 15 μs; LNZ (linezolid) 10 μg; AN (nalidixic acid) 30 μg; NOR (norfloxacin) 10 μg; PT (pristinamycin) 15 μg; RA (rifampicin) 5 μg; and E (erythromycin) 15 μg.

Proteus mirabilis = details: Table C1, six wafers, disk loads of Table B
Procedure: as §1, §2, §3, §4, §5, §6, §7

Escherichia coli = details: for resistance (I, R) or sensitivity (S): Table C1, disk loads of Table B; for resistant (I/R) or sensitive (S): Table C2, square dish
Procedure: as §1, §2, §3, §4, §5, §6, §7

Entercoccus faecalis = details: Table C1, six wafers, disk loads of Table B
Procedure: as §1, §2, §3, §4, §5, §6, §7

[1] = tested on: Staphylococcus epidermidis; details: Table C1, six wafers, disk loads of Table B
Procedure: as §1, §2, §3, §4, §5, §6, §7

Staphylococcus aureus = details: for resistance (I, R) or sensitivity (S): Table C1, six wafers, disk loads of Table B; for resistant (I/R) or sensitive (S): Table C2, sixteen wafers, square dish
Procedure: as §1, §2, §3, §4, §5, §6, §7

Enterobacter cloacea = details: Table C1, six wafers, disk loads of Table B
Procedure: as §1, §2, §3, §4, §5, §6, §7

Enterobacter aerogenes = details: Table C1, six wafers, disk loads of Table B
Procedure: as §1, §2, §3, §4, §5, §6, §7

Klebsiella oxytoca = details: Table C1; K. oxytoca phenotype Wild; six wafers, disk loads of Table B
Procedure: as §1, §2, §3, §4, §5, §6, §7

[2] = K. pneumoniae phenotype Cephalosporinase + R to aminosides + R to cotrimoxazole
[3] = E. coli phenotype Cephalosporinase + R to fluoroquinolones + R to cotrimoxazole + partial R to aminosides, sixteen wafers
[4] = E. coli phenotype Hl penicillinase + R to fluoroquinolones + R to cotrimoxazole + partial R to aminosides, sixteen wafers
[5] = E. coli phenotype Wild, sixteen wafers in a rectangular grid
[6] = S. epidermidis phenotype Methicillin resistant
[7] = S. aureus phenotype Methicillin resistant
[8] = S. aureus phenotype R to methicilline, R to aminosides, fluoroquinolones, to rifampicie, to macrolides and the like

Row | Compound | resistant (I/R) or sensitive (S) (Klebsiella pneumoniae; [2]) | resistant (I/R) or sensitive (S) (Klebsiella pneumoniae; K. pneumoniae phenotype Wild) | resistant (I/R) or sensitive (S) (Escherichia coli; [3]) | resistant (I/R) or sensitive (S) (Escherichia coli; [4]) | resistant (I/R) or sensitive (S) (Escherichia coli; [5]) | resistance (I, R) or sensitivity (S) (Entercoccus faecalis; E. faecalis phenotype Atypical) | resistance (I, R) or sensitivity (S) (Entercoccus faecalis; E. faecalis phenotype Wild) | resistance (I, R) or sensitivity (S) [1, 6] | resistance (I, R) or sensitivity (S) ([1]; S. epidermidis phenotype Wild) | resistance (I, R) or sensitivity (S) (Staphylococcus aureus; [7]) | resistance (I, R) or sensitivity (S) (Staphylococcus aureus; S. aureus phenotype Wild) | resistant (I/R) or sensitive (S) (Staphylococcus aureus; [8]) | resistant (I/R) or sensitive (S) (Staphylococcus aureus; S. aureus phenotype Wild) | further results
1 | CC1(C)S[C@@H]2[C@H](NC(=O)[C@H](N)c3ccc(O)cc3)C(=O)N2[C@H]1C(=O)O [AMX, amoxicillin] | R | R | R | R | S | R | S |  |  |  |  |  |  | resistance (I, R) or sensitivity (S) (Proteus mirabilis; P. mirabilis phenotype Hl cephalosporinase): R; resistance (I, R) or sensitivity (S) (Proteus mirabilis; P. mirabilis phenotype Hl penicillinase): R; resistance (I, R) or sensitivity (S) (Proteus mirabilis; P. mirabilis phenotype Inhibitor resistant penicillinase): R; resistance (I, R) or sensitivity (S) (Proteus mirabilis; P. mirabilis phenotype Ll penicillinase): R; resistance (I, R) or sensitivity (S) (Proteus mirabilis; P. mirabilis phenotype Wild): S; synergy zone between two antibiotic wafers placed side by side (Escherichia coli; E. coli cephalosporinase phenotype (FIGS. 2D, 2E)): absence of a zone of synergy; synergy zone between two antibiotic wafers placed side by side (Escherichia coli; E. coli strain of BSBL phenotype, champagne-cork shaped inhibition zone): presence of a zone of synergy; resistance (I, R) or sensitivity (S) (Escherichia coli; E. coli phenotype BSBL, six wafers): R; resistance (I, R) or sensitivity (S) (Escherichia coli; E. coli phenotype Carbapenemase, six wafers): R; resistance (I, R) or sensitivity (S) (Escherichia coli; E. coli phenotype Hl cephalosporinase, six wafers): R; resistance (I, R) or sensitivity (S) (Escherichia coli; E. coli phenotype Hl penicillinase, six wafers): R; resistance (I, R) or sensitivity (S) (Escherichia coli; E. coli phenotype Inhibitor resistant penicillinase, six wafers): R; resistance (I, R) or sensitivity (S) (Escherichia coli; E. coli phenotype Ll penicillinase, six wafers): R; resistance (I, R) or sensitivity (S) (Escherichia coli; E. coli phenotype Wild, six wafers in a circle): S
2 | CO[C@@]1(NC(=O)Cc2cccs2)C(=O)N2C(C(=O)O)=C(COC(N)=O)CS[C@@H]21 [FOX, cefoxitine] | S | S | S | S | S |  |  | R | S | R | S | R | S | 
3 | teicoplanin [TEC] |  |  |  |  |  | S | S | S | S | S | S | S | S | 
4 | trimethoprim-sulfamethoxazole (cotrimoxazole) [SXT] | R | R | R | R | S |  |  | S | S | S | S | R | S | 
5 | CCC[C@@H]1C[C@@H](C(=O)N[C@@H]([C@H]2O[C@H](SC)[C@H](O)[C@@H](O)[C@H]2O)[C@H](C)Cl)N(C)C1 [CLI, clindamycin] |  |  |  |  |  |  |  |  | S |  | S | R | S | 
6 | CN[C@H](CC(C)C)C(=O)N[C@H]1C(=O)N[C@@H](CC(N)=O)C(=O)N[C@H]2C(=O)N[C@H]3C(=O)N[C@H](C(=O)N[C@H](C(=O)O)c4cc(O)cc(O)c4-c4cc3ccc4O)[C@H](O)c3ccc(c(Cl)c3)Oc3cc2cc(c3O[C@@H]2O[C@H](CO)[C@@H](O)[C@H](O)[C@H]2O[C@H]2C[C@](C)(N)[C@H](O)[C@H](C)O2)Oc2ccc(cc2Cl)[C@H]1O [VAN, vancomycin] |  |  |  |  |  | S | S | S | S | S | S | S | S | 
7 | gentamicin | R | R | R | R | S | S | S | S | S | S | S | R | S | 
8 | colistin | S | S | S | S | S |  |  |  |  |  |  |  |  | resistance (I, R) or sensitivity (S) (Enterobacter cloacea; E. cloacae phenotype BSBL): S; resistance (I, R) or sensitivity (S) (Enterobacter cloacea; E. cloacae phenotype Wild): S; resistance (I, R) or sensitivity (S) (Enterobacter aerogenes; E. aerogenes phenotype BSBL): S; resistance (I, R) or sensitivity (S) (Enterobacter aerogenes; E. aerogenes phenotype Wild): S; resistance (I, R) or sensitivity (S) (Klebsiella pneumoniae; K. pneumoniae phenotype BSBL): S; resistance (I, R) or sensitivity (S) (Klebsiella pneumoniae; K. pneumoniae phenotype Carbapenemase): S; resistance (I, R) or sensitivity (S) (Klebsiella pneumoniae; K. pneumoniae phenotype Hl cephalosporinase): S; resistance (I, R) or sensitivity (S) (Klebsiella pneumoniae; K. pneumoniae phenotype Hl penicillinase): S; resistance (I, R) or sensitivity (S) (Klebsiella pneumoniae; K. pneumoniae phenotype Ll penicillinase): S; resistance (I, R) or sensitivity (S) (Klebsiella pneumoniae; K. pneumoniae phenotype Wild): S; resistance (I, R) or sensitivity (S) (Klebsiella oxytoca): S
